The record followed here is ChEMBL document CHEMBL1159157, “Novel inhibitors of influenza sialidase related to GG167 Synthesis of 4-amino and guanidino-4H-pyran-2-carboxylic acid-6-propylamides; selective inhibitors of influenza a virus sialidase” (Bioorg Med Chem Lett, 1996).

In brackets after ≈: the same amount, converted by molar mass.

The subject of assay [1] is Influenza A virus. Kind of assay: In vitro antiviral activity was evaluated in a plaque reduction assay against influenza A. In kind it is functional, organism-based. In general terms: Plaques are areas of infected cells; plaque reduction assays count them against a control.
In assay [2] the test system is Influenza B virus. Kind of assay: In vitro antiviral activity was evaluated in a plaque reduction assay against influenza B. The format is functional, organism-based.

`CCCN(C)C(=O)[C@@H]1OC(C(=O)O)=C[C@H](NC(=N)N)[C@H]1NC(C)=O`: the IC50 (in general, the concentration needed to halve the response being measured) was 11 ng/mL (≈ 0.0322 µM) in assay [1] and 2200 ng/mL (≈ 6.44 µM) in assay [2].

In assay [1], `CCCN(CCC)C(=O)[C@@H]1OC(C(=O)O)=C[C@H](NC(=N)N)[C@H]1NC(C)=O` had an IC50 of 0.1 ng/mL (≈ 0.000271 µM).

Take `CCCN(C)C(=O)[C@@H]1OC(C(=O)O)=C[C@H](N)[C@H]1NC(C)=O`: the IC50 in assay [1] turned out to be 320 ng/mL (≈ 1.07 µM); in assay [2], 16000 ng/mL (≈ 53.5 µM).

In turn, `CCCNC(=O)[C@@H]1OC(C(=O)O)=C[C@H](N)[C@H]1NC(C)=O` came in with an IC50 in assay [2] of 44000 ng/mL (≈ 154 µM).

In the case of `CC(=O)N[C@H]1[C@H]([C@H](O)[C@H](O)CO)OC(C(=O)O)=C[C@@H]1N`, the figures for the IC50 in assay [1] and in assay [2] were 470 ng/mL (≈ 1.62 µM) and 20 ng/mL (≈ 0.0689 µM), respectively.

With `CCCNC(=O)[C@@H]1OC(C(=O)O)=C[C@H](NC(=N)N)[C@H]1NC(C)=O`, the IC50 in assay [1] amounted to 280 ng/mL (≈ 0.855 µM); in assay [2] it was 3800 ng/mL (≈ 11.6 µM).
